What all share (format): functional
Assay [1] has as its target T1, Sodium- and chloride-dependent GABA transporter 3 (Homo sapiens, UniProt P48066).
T1 sequence (P48066 whole entry): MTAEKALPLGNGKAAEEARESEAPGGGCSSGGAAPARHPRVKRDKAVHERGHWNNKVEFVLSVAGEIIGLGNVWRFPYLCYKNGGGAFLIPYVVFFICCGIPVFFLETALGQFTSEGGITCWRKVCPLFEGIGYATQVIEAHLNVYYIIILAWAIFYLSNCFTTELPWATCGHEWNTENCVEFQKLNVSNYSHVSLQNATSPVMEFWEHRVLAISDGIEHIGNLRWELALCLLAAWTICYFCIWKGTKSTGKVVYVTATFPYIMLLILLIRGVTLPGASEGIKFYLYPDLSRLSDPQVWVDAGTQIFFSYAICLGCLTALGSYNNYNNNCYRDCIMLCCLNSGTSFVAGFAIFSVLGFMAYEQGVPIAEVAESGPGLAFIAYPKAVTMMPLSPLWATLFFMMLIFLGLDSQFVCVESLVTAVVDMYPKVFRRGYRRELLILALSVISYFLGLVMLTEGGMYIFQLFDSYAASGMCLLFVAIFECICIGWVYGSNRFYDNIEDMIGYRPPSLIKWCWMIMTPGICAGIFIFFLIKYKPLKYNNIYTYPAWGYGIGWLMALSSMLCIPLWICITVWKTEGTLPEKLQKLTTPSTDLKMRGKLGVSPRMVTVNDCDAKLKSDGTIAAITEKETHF
The assay can be described thus: Compound was tested for its ability to inhibit uptake of [3H]- GABA by cloned human GAT-3 transporter.

Assay [2] has as its target T2, Sodium- and chloride-dependent betaine transporter (Homo sapiens, UniProt P48065).
T2 sequence (P48065 whole entry): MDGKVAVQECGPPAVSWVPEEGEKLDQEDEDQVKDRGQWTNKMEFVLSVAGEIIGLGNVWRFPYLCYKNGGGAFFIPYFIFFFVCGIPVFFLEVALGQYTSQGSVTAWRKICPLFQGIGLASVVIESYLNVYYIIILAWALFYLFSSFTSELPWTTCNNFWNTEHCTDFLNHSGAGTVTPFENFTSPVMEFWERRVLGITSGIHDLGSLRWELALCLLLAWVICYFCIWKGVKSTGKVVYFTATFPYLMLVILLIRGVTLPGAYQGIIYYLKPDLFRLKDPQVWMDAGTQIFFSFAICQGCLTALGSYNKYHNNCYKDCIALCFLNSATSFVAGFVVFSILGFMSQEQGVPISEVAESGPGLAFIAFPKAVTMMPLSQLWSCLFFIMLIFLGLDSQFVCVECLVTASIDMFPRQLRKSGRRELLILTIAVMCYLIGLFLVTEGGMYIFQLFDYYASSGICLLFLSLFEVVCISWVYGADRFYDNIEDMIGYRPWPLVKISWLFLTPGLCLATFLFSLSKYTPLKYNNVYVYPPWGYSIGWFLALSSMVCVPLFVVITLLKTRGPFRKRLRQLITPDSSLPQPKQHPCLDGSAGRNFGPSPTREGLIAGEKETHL
Kind of assay: Compound was tested for its ability to inhibit uptake of [3H]- GABA by cloned human BGT-1 transporter.

Assay [3] addresses Sodium- and chloride-dependent GABA transporter 1 (Homo sapiens, UniProt P30531). Kind of assay: Compound was tested for its ability to inhibit uptake of [3H]- GABA by cloned human GAT-1 transporter.
Assay [4] has as its target T3, Sodium- and chloride-dependent GABA transporter 2 (Rattus norvegicus, UniProt P31646).
T3 sequence (P31646 whole entry): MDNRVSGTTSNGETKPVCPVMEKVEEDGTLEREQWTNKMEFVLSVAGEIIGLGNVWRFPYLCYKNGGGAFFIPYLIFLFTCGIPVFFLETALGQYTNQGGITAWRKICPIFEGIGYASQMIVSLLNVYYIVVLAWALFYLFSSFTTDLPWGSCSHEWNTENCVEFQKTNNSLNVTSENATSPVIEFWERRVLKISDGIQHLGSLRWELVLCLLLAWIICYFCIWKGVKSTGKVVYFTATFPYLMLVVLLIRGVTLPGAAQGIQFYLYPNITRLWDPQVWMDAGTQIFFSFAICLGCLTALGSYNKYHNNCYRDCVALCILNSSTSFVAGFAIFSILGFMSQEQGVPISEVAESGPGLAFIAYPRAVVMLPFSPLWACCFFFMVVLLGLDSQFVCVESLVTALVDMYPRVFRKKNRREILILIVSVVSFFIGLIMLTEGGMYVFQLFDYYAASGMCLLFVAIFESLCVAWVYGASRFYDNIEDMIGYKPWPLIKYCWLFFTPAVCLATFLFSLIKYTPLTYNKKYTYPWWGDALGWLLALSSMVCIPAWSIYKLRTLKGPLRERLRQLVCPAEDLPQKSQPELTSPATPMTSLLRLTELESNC
The assay can be described thus: Compound was tested for its ability to inhibit uptake of [3H]- GABA by cloned rat GAT-2 transporte.

Chain of Sodium- and chloride-dependent GABA transporter 1 (P30531 whole entry): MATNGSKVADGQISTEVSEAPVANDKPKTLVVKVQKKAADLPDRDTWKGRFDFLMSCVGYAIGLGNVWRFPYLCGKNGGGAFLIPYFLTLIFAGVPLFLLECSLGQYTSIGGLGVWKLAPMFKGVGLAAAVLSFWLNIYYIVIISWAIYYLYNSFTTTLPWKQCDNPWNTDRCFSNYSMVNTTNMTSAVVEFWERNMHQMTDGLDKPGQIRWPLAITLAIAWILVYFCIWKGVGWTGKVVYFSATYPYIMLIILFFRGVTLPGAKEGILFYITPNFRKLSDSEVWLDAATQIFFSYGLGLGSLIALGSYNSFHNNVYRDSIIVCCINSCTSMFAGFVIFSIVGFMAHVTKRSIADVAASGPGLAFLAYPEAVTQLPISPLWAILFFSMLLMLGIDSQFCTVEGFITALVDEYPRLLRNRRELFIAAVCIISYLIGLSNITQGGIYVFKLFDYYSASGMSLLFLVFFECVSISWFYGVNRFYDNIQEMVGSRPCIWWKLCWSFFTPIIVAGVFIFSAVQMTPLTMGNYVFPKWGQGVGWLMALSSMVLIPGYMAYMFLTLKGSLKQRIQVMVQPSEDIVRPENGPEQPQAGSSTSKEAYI

Consider `O=C(O)[C@H]1CCC2CC(=C(c3ccccc3)c3ccccc3)CCN2C1` (stereo partly specified), for which the IC50 in assay [1] came out at 876 µM; in assay [2], 335 µM; in assay [3] it was 809 µM; in assay [4] it was 757 µM.
On to `O=C(O)[C@@H]1CCC2C[C@H](C(c3ccccc3)c3ccccc3)CCN2C1` (stereo partly specified), for which the IC50 is 2040 µM in assay [1], 2900 µM in assay [2], 632 µM in assay [3] and 477 µM in assay [4].
`O=C(O)[C@H]1CCC2C[C@H](C(c3ccccc3)c3ccccc3)CCN2C1` (stereo partly specified): the IC50 was determined as 782 µM in assay [1], 809 µM in assay [2], 270 µM in assay [3] and 669 µM in assay [4].
Turning to `O=C(O)[C@@H]1CCC2CC(=C(c3ccccc3)c3ccccc3)CCN2C1` (stereo partly specified), the half-maximal inhibitory concentration (IC50) amounted to 3230 µM in assay [1], 436 µM in assay [2], 270 µM in assay [3] and 810 µM in assay [4].

A word on the IC50: it is the concentration at which inhibition is half-maximal.

(Values after ChEMBL document CHEMBL1129108, “On the bioactive conformation of the gaba uptake inhibitor SK&F 89976-A” (Bioorg Med Chem Lett, 1996).)
